Laboratory results reported in patent US6953786B2, “Compositions comprising plant-derived polyphenolic compounds and inhibitors of reactive oxygen species and methods of using thereof” (The Regents of the University of California, priority 2002, dated 2005).

Key:
[1] = tested on: BSp73AS and Mia PACA-2 cells; test: Caspase-3 activity and annexin staining with MG-132 (FIG. 14C); format: cell-based; settings: polyphenols 100 μM, MG-132 20 μM
[2] = tested on: Akt/PKB; test: Akt/PKB phosphorylation (Western blot); format: cell-based, human; settings: Mia PACA-2, 72 hours, with serum; genistein 100 μM, LY294002 50 μM
Protocol: To determine whether phosphatidylinositol 3-kinase (PI 3-kinase) and Akt/PKB mediate the effects of serum on NF-κB activation and that the effects of polyphenolic compounds on NF-κB activation are due to an ability to inhibit PI 3-kinase, the following assays were conducted. Specifically, to determine the effects of serum, LY294002, a PI 3-kinase inhibitor, and genistein on Akt/PKB phosphorylation, Mia PACA-2 cells were cultured for 72 hours in the absence or presence of serum with or without 100 μM genistein (GN) or 50 μM LY294002. Western blots were performed on whole cell lysates as described above except that specific antibodies against phosphorylated and total Akt/PKB were used (Akt/PKB is Anti-pS473 AktpAB from Promega, Madison Wis. and total Akt is Akt ½ from Santa Cruz, Santa Cruz, Calif.). The membranes were then stripped and re-probed with an antibody against total Akt .

[3] = tested on: PARP; test: PARP proteolysis (Western blot); format: cell-based, rat; settings: BSp73AS, 6 hours, 100 μM
Protocol: BSp73AS cells were cultured for 6 hours and Mia PACA-2 cells were cultured for 24 hours in the presence or absence of 100 μM of each rutin, quercetin or trans-resveratrol and with or without 50 μM of each […]. The cells were washed twice with PBS and lysed by incubating for 20 minutes at 4° C. in lysis buffer comprising 0.15 M NaCl, 50 mM Tris (pH 7.2), 1% deoxycholic acid (wt/vol), 1% Triton X-100 (wt/vol), 0.1% […] (wt/vol) and 1 mM PMSF, as well as 5 μg/ml each of protease inhibitors, pepstatin, leupeptin, chymostatin, antipain, and aprotinin. Then the cell lysates were centrifuged for 20 minutes at 15,000 g at 4° C. The supernatants were separated by 4-20% SDS-PAGE for 2 hours at 120 V using precast Tris-glycine gels and a Mini-Cell gel apparatus (Novex, San Diego, Calif.). Separated proteins were electrophoretically transferred to a nitrocellulose membrane for 2 hours at 30 V using a Novex Blot Module (Novex, San Diego, Calif.). Nonspecific binding was blocked by 1 hour incubation of nitrocellulose membranes in 5% (wt/vol) nonfat dry milk in Tris-buffered saline (TBS; pH 7.5). Blots were then incubated overnight at 4° C. with rabbit polyclonal antibody against poly (ADP-ribose) polymerase (PARP) (Santa Cruz Biotechnology, Santa Cruz, Calif.) (1;3,000) in an antibody buffer comprising (1% (wt/vol) non-fat dry milk in TTBS (0.05% vol/vol) Tween-20 in TBS), washed 3 times with TTBS and finally incubated for 1 hour with a peroxidase-labeled secondary antibody in the antibody buffer. Blots were developed for visualization using ECL detection kit. To test for equal protein loading, the blots were stripped and re-probed with an antibody against tubulin. When processing of a protein was measured, a decrease in unprocessed full-length form was measured concomitantly with the increase in the cleaved, active form. The experiment was repeated 3 times with similar results.

[4] = tested on: caspase-3; test: Caspase-3 processing (Western blot); format: cell-based, rat; settings: BSp73AS
Protocol: (§1) In order to determine the effect polyphenolic compounds have on caspase-3 activity, the following assay was conducted. BSp73AS cells were culture in the absence of serum or growth factors for 24 hours in 0, 10, 20, and 50 μM of trans-resveratrol and Mia PACA-2 -cells were cultured for 72 hours in the presences of 0, 10, 20, and 50 μM of tran-resveratrol. Cell lysates were then prepared and 50 μg protein aliquots were loaded per lane and blotted with rabbit polyclonal antibody against caspase-3 (Santa Cruz Biotechnology, Santa Cruz, Calif.). The experiment was repeated 3 times with similar results.

[5] = tested on: caspase-3; test: Caspase-3 processing (Western blot); format: cell-based, human
Protocol: as §1

[6] = tested on: Mia PACA-2; test: TUNEL apoptosis assay in primary tumors and normal tissues; format: in vivo, nude mouse
Protocol: In order to determine the mechanism of the suppressive effects of quercetin on the growth of the pancreatic cancer, apoptosis in the primary tumors using the TUNEL assay was conducted. See Gukovskaya AS, et al. (1997) Clin Invest 100:1853-1862; Gukovskaya AS, et al. (1996) Gastroenterology 110:875-884; and Sandoval D, et al. (1996) Gastroenterology 111:1081-1091, which are herein incorporated by reference. Specifically, 3 μm tissue section were deparaffinized and rehydrated through a graded series of ethanol and redistilled water. Tissue sections were refixed in 4% paraformaldehyde for 15 minutes at room temperature and then incubated with proteinase K (20 μg/ml in 10 mM Tirs/HCL, pH 7.4-8.0) for 15 minutes at 37° C. DNA breaks were then labeled with terminal deoxytransferase (TdT) and biotinylated deoxyUTP. Staining without TdT enzyme or the biotinylated substrate were used as negative controls. For positive controls, slides were treated with DNase I. Measurements were made by light microscpy observations and values calculated as the percentage of cells positively stained as a percentage of the total number of cells.

Row | Structure (SMILES) | apoptosis (annexin staining) [1] | serum-induced Akt/PKB phosphorylation/activation [2] | PARP cleavage [3] | lowest concentration with effect on caspase-3 conversion ([4]; 24 hours (FIG. 6A)) | conversion of caspase-3 from inactive to active form ([4]; 24 hours, no serum, 0-50 μM (FIG. 6A)) | lowest concentration with effect on caspase-3 conversion ([5]; Mia PACA-2, 72 hours (FIG. 7A)) | conversion of caspase-3 from inactive to active form ([5]; Mia PACA-2, 72 hours, 0-50 μM (FIG. 7A)) | Percentage of apoptosis ([6]; TUNEL in primary tumors of quercetin-treated nude mice, means ± SE, n=8) | apoptosis in normal tissues detected by the TUNEL assay ([6]; quercetin-treated nude mice, data not shown)
1 | O=c1c(-c2ccc(O)cc2)coc2cc(O)cc(O)c12 [genistein] | causes significant apoptosis | attenuated serum-induced Akt phosphorylation/activation |  |  |  |  |  |  | 
2 | Oc1ccc(/C=C/c2cc(O)cc(O)c2)cc1 [trans-resveratrol] |  |  | cleaved to its activated form | 20 µM | convert caspase-3 from its inactive form (32 kDa doublet) to its active form (17 kDa) |  |  |  | 
3 | O=c1c(O)c(-c2ccc(O)c(O)c2)oc2cc(O)cc(O)c12 [quercetin] |  |  | cleaved to its activated form |  |  | 20 µM | convert caspase-3 from its inactive form (32 kDa doublet) to its active form (17 kDa) | 7.10 ± 1.00 % | no increase in apoptosis
